Experimental data taken from US20090226500A1, “SUTURES AND ANTI-SCARRING AGENTS” (Angiotech Pharmaceuticals, Inc, priority 2006, published 2009).
Structures can show the parent of a compound that is named as a salt. Where two headings read alike, the source gives them in different places.

Tests used:
E. coli UB1005 C498 = experiment: MIC microtitre broth dilution, E. coli; assay type: cell-based; details: E. coli UB1005 C498 wt Gram−, 24 h
Protocol: MIC assays were conducted essentially as described by Amsterdam, D 1996, “Susceptibility testing of antimicrobials in liquid media”, p. 52-111, in Loman, V, ed. Antibiotics in laboratory medicine, 4th ed Williams and Wilkins, Baltimore, Md.

[1] = system: IL-1β production by THP-1 cells; experiment: IL-1β production by macrophages; assay type: cell-based, human; details: read-out: IC50 IL-1β production
Smooth muscle cells = experiment: Proliferation of smooth muscle cells; assay type: cell-based; details: 72 hours, CYQUANT; read-out: IC50 proliferation of smooth muscle cells
Protocol: Smooth muscle cells at 70-90% confluency were trypsinized, replated at 600 cells/well in media in 96-well plates and allowed to attachment overnight. Paclitaxel was prepared in DMSO at a concentration of 10^−2 M and diluted 10-fold to give a range of stock concentrations (10^−8 M to 10^−2 M). […] Each drug concentration was tested in triplicate wells. Plates containing cells and paclitaxel were incubated at 37° C. for 72 hours.
To terminate the assay, the media was removed by gentle aspiration A 1/400 dilution of CYQUANT 400×GR dye indicator (Molecular Probes; Eugene, Oreg.) was added to 1× Cell Lysis buffer, and 200 μL of the mixture was added to the wells of the plate. Plates were incubated at room temperature, protected from light for 3-5 minutes.

[2] = system: MCP-1 production by THP-1 cells; experiment: MCP-1 production by macrophages; assay type: cell-based, human; details: read-out: IC50 MCP-1 production
Protocol: (§1) The human macrophage cell line, THP-1 was plated in a 12 well plate such that each well contains 1×10^6 cells in 2 ml of media containing 10% FCS. Opsonized zymosan was prepared by resuspending 20 mg of zymosan A in 2 ml of ddH2O and homogenizing until a uniform suspension was obtained. Homogenized zymosan was pelleted at 250 g and resuspended in 4 ml of human serum for a final concentration of 5 mg/ml and incubated in a 37° C. water bath for 20 minutes to enable opsonization. Geldanamycin was prepared in DMSO at a concentration of 10^−2 M and serially diluted 10-fold to give a range of stock concentrations (10^−8 M to 10^−2 M).
(§2) THP-1 cells were stimulated to produce MCP-1 by the addition of 1 mg/ml opsonized zymosan. Eldanamycin was added to THP-1 cells by directly adding DMSO stock solutions, prepared earlier, at a 1/1000 dilution, to each well. Each drug concentration was tested in triplicate wells. Plates were incubated at 37° C. for 24 hours.
After a 24-hour stimulation, supernatants were collected to quantify MCP-1 production. MCP-1 concentrations in the supernatants were determined by ELISA using recombinant human MCP-1 to obtain a standard curve. A 96-well MaxiSorb plate was coated with 100 μL of anti-human MCP-1 Capture Antibody diluted in Coating Buffer (0.1M sodium carbonate pH 9.5) overnight at 4° C. The dilution of Capture Antibody used was lot-specific and was determined empirically. Capture antibody was then aspirated and the plate washed 3 times with Wash Buffer (PBS, 0.05% TWEEN-20). Plates were blocked for 1 hour at room temperature with 200 μL/well of Assay Diluent (PBS, 10% FCS pH 7.0). After blocking, plates were washed 3 times with Wash Buffer. […] Sample supernatants and standards were assayed in triplicate and were incubated at room temperature for 2 hours after addition to the plate coated with Capture Antibody. The plates were washed 5 times and incubated with 100 μL of Working Detector (biotinylated anti-human MCP-1 detection antibody+avidin-HRP) for 1 hour at room temperature. Following this incubation, the plates were washed 7 times and 100 μL of Substrate Solution (tetramethylbenzidine, H2O2) was added to plates and incubated for 30 minutes at room temperature. […] Mean absorbance was determined from triplicate data readings and the mean background was subtracted. MCP-1 concentration values were obtained from the standard curve.

[3] = system: TNFα production by THP-1 cells; experiment: TNF-alpha production by macrophages; assay type: cell-based, human; details: read-out: IC50 TNFα production
Protocol: as §1, with “12-well” for “12 well”, “opsonization.” for “opsonization. Geldanamycin was prepared in DMSO at a concentration of 10^−2 M and serially diluted 10-fold to give a range of stock concentrations (10^−8 M to 10^−2 M).”
THP-1 cells were stimulated to produce TNFα by the addition of 1 mg/ml opsonized zymosan. […] Each drug concentration was tested in triplicate wells. Plates were incubated at 37° C. for 24 hours.
After a 24-hour stimulation, supernatants were collected to quantify TNFα production. TNFα concentrations in the supernatants were determined by ELISA using recombinant human TNFα to obtain a standard curve A 96-well MaxiSorb plate was coated with 100 μL of anti-human TNFα Capture Antibody diluted in Coating Buffer (0.1M sodium carbonate pH 9 5) overnight at 4° C. The dilution of Capture Antibody used was lot-specific and was determined empirically. Capture antibody was then aspirated and the plate washed 3 times with Wash Buffer (PBS, 0.05% TWEEN-20) Plates were blocked for 1 hour at room temperature with 200 μL/well of Assay Diluent (PBS, 10% FCS pH 7.0). After blocking, plates were washed 3 times with Wash Buffer. […] Sample supernatants and standards were assayed in triplicate and were incubated at room temperature for 2 hours after addition to the plate coated with Capture Antibody. The plates were washed 5 times and incubated with 100 μL of Working Detector (biotinylated anti-human TNFα detection antibody+avidin-HRP) for 1 hour at room temperature. Following this incubation, the plates were washed 7 times and 100 μL of Substrate Solution (tetramethylbenzidine, H2O2) was added to plates and incubated for 30 minutes at room temperature. […] Mean absorbance was determined from triplicate data readings and the mean background was subtracted. TNFα concentration values were obtained from the standard curve.

[4] = system: IL-8 production by THP-1 cells; experiment: IL-8 production by macrophages; assay type: cell-based, human; details: THP-1 cells stimulated with opsonized zymosan, 24 hours, read-out: IC50 IL-8 production
Protocol: as §1, with “g,” for “g and”, “mg/ml,” for “mg/ml”
as §2, with “IL-8” for “MCP-1”, “Geldanamycin” for “Eldanamycin”
After a 24-hour stimulation, supernatants were collected to quantify IL-8 production. IL-8 concentrations in the supernatants were determined by ELISA using recombinant human IL-8 to obtain a standard curve. A 96-well MAXISORB plate was coated with 100 μL of anti-human IL-8 Capture Antibody diluted in Coating Buffer (0.1M sodium carbonate pH 9.5) overnight at 4° C. The dilution of Capture Antibody used was lot-specific and was determined empirically. Capture antibody was then aspirated and the plate washed 3 times with Wash Buffer (PBS, 0.05% TWEEN-20). Plates were blocked for 1 hour at room temperature with 200 μL/well of Assay Diluent (PBS, 10% FCS pH 7.0). After blocking, plates were washed 3 times with Wash Buffer. Standards and sample dilutions were prepared as follows: (a) sample supernatants were diluted 1/100 and 1/1000; (b) recombinant human IL-8 was prepared at 200 pg/ml and serially diluted to yield as standard curve of 3.1 pg/ml to 200 pg/ml Sample supernatants and standards were assayed in triplicate and were incubated at room temperature for 2 hours after addition to the plate coated with Capture Antibody The plates were washed 5 times and incubated with 100 μL of Working Detector (biotinylated anti-human IL-8 detection antibody+avidin-HRP) for 1 hour at room temperature. Following this incubation, the plates were washed 7 times and 100 μL of Substrate Solution (Tetramethylbenzidine, H2O2) was added to plates and incubated for 30 minutes at room temperature. Stop Solution (2 NH2SO4) was then added to the wells and a yellow color reaction was read at 450 nm with A correction at 570 nm. Mean absorbance was determined from triplicate data readings and the mean background was subtracted. IL-8 concentration values were obtained from the standard curve. […] The IC50 values for the following additional compounds were determined using this assay: IC50 (nM): 17-AAG, 56; mycophenolic acid, 549; resveratrol, 507; rapamycin, 4; 41; SP600125, 344; halofuginone, 641; D-mannose-6-phosphate, 220; epirubicin hydrochloride, 654; topotemay, 257; mithramycin, 33; daunorubicin, 421; celastrol, 490; chromomycin A3, 36

human fibroblasts = experiment: Cell proliferation of fibroblasts; assay type: cell-based; details: Fibroblast, 72 hours, CYQUANT, read-out: IC50 cell proliferation of fibroblasts
In short: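 Human fibroblasts plated at 600 cells/well, attached overnight, then exposed to drug in triplicate for 72 h at 37°C. Cell content read with CYQUANT GR dye in lysis buffer after 3-5 min at room temperature.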

[5] = Homo sapiens, THP-1 cells stimulated with opsonized zymosan, 24 hours
[6] = THP-1 cells stimulated with opsonized zymosan, 24 hours

Compound	IC50 [1, 6]	IC50 (Smooth muscle cells)	IC50 [2, 6]	IC50 [4]	further results
Sc1ncc2[nH]cnc2n1 [2-mercaptopurine]					Minimum inhibitory concentration (E. coli UB1005 C498): N
Sc1ncnc2nc[nH]c12 [6-mercaptopurine]					Minimum inhibitory concentration (E. coli UB1005 C498): N
C[C@H](NC(=O)C(=O)Nc1ccccc1C(C)(C)C)C(=O)N[C@@H](CC(=O)O)C(=O)COc1c(F)c(F)cc(F)c1F [IDN-6556]					IC50 [1, 5]: 642 nM
COc1ccc(C[C@H]2NC[C@H](O)[C@H]2OC(C)=O)cc1 [anisomycin]	127 nM	276 nM	71 nM		
CO[C@@H]1[C@H](O)C[C@@H](O[C@@H]2C[C@H](Oc3cc4cc5c(c(O)c4c(O)c3C)C(=O)[C@@H](O[C@H]3C[C@@H](O[C@H]4C[C@@H](O[C@H]6C[C@](C)(O)[C@@H](OC(C)=O)[C@H](C)O6)[C@H](O)[C@@H](C)O4)[C@H](O)[C@@H](C)O3)[C@H]([C@H](OC)C(=O)[C@@H](O)[C@@H](C)O)C5)O[C@H](C)[C@@H]2OC(C)=O)O[C@@H]1C [chromomycin A3]		12 nM	37 nM	36 nM	IC50 [3, 6]: 394 nM; IC50 [1]: 148 nM
COc1cccc2c1C(=O)c1c(O)c3c(c(O)c1C2=O)C[C@@](O)(C(C)=O)C[C@@H]3O[C@H]1C[C@H](N)[C@H](O)[C@H](C)O1 [daunorubicin]		50 nM	570 nM	421 nM	IC50 [3, 6]: 195 nM; IC50 [1]: 517 nM
COc1cccc2c1C(=O)c1c(O)c3c(c(O)c1C2=O)C[C@@](O)(C(=O)CO)C[C@@H]3O[C@H]1C[C@H](N)[C@@H](O)[C@H](C)O1 [epirubicin hydrochloride]	774 nM	19 nM		654 nM	
O=C1c2ccccc2-[n+]2ccc3c([nH]c4ccccc43)c21 [fascaplycin, Fascaplysin]		510 nM			IC50 ([3]; Homo sapiens, THP-1, 24 h): 701 nM; IC50 ([1]; Homo sapiens, THP-1, 24 h): 425 nM; IC50 (human fibroblasts): 600 to 1200 nM; IC50 ([2]; Homo sapiens, THP-1, 24 h): 215 nM
O=C(CC1NCCCC1O)Cn1cnc2cc(Br)c(Cl)cc2c1=O (stereo not drawn) [halofuginone]		81 nM			IC50 ([1]; Homo sapiens, THP-1, 24 h): 919 nM; IC50 ([4]; Homo sapiens): 641 nM; IC50 (human fibroblasts): 10 to 100 nM; IC50 [2, 5]: 9 nM
O=C1c2c(O)ccc(O)c2C(=O)c2c(NCCNCCO)ccc(NCCNCCO)c21 [mitoxantrone, 9,10-anthracenedione, 1,4-dihydroxy-5,8-bis((2-((2-hydroxyethyl)amino)ethyl)amino)-]		1 nM			Minimum inhibitory concentration (E. coli UB1005 C498): 10^−5 Molar; IC50 [2, 5]: 62 nM
O=C1[O][Pt]2([NH][C@@H]3CCCC[C@H]3[NH]2)[O]C1=O [oxalipatin, Oxaliplatin]	107 nM				
CC[C@@]1(O)C(=O)OCc2c1cc1n(c2=O)Cc2cc3c(CN(C)C)c(O)ccc3nc2-1 [topotemay, Topotecan]	509 nM	51 nM	514 nM	257 nM	
Mithramycin A		19 nM	18 nM	33 nM	IC50 [3, 6]: 570 nM
rapamycin	0.48 nM		0.05 nM	4 nM	IC50 [3, 6]: 51 nM
